Data on two compounds can be found in paper PMC8583936, “Machine Learning Assisted Approach for Finding Novel High Activity Agonists of Human Ectopic Olfactory Receptors” (International Journal of Molecular Sciences, 2021).

The assay deals with T1, OR2W1 (Homo sapiens, UniProt Q9Y3N9).
T1 sequence (Q9Y3N9 1-320): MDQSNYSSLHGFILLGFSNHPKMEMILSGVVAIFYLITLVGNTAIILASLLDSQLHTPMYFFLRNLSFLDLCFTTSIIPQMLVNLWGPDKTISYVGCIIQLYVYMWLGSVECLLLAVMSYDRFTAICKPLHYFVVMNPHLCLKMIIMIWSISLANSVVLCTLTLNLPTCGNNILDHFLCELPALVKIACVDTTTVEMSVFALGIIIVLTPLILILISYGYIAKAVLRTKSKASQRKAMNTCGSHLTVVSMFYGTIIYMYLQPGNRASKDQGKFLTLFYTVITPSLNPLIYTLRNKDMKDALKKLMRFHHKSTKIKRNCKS
Briefly: Dual-Glo luciferase reporter gene assay, OR2W1 in Hana3A cells. It counts as cell-based. Details: The open reading frames of ORs were amplified using Phusion polymerase; Rho-tag (first 20 amino acids of human rhodopsin) (N); expressed in transfected cells; host or cells: Hana3A cells (derived from HEK293T), pCI vector; co-transfected with human RTP1S, M3 receptor, CRE-Luc and SV40-RL. The conditions noted are these: for activation of OR2W1 in dose-responses: Figure 4B; for Bottom / Top: log(agonist) vs. response (three parameters), normalized (L-400/R-400); for normilazed value = (L-400/R-400): three replicates. As to the method: Hana3A cells were maintained in minimal essential medium containing 10% FBS (vol/vol) with penicillin-streptomycin and amphotericin B (1/200 each vol/vol) at 37 °C and 5% CO2. Hana3A cells are derived from HEK293T [57] and are optimized for OR studies as shown in several studies, compared to earlier OR expression in Sf9 insect cells in Gat et al., and in Xenopus oocytes, COS-7, PC12h and CHO-K1 cells in Katada et al..
The Dual-Glo luciferase assay system (Promega, Madison, WI, USA) was used to evaluate the functionality of wild-type OR1A1 and OR2W1 in an in vitro system. The open reading frames of ORs were amplified using Phusion polymerase (Thermo Fisher Scientific, Waltham, MA, USA). Amplified fragments were cloned into pCI expression vector (Promega, Madison, WI, USA) containing the sequence encoding the first 20 amino acids of human rhodopsin (Rho-tag) at N-terminal. Hana3A cells have been cultured and plated the day before transfection with 6 mL at 1/10 of a 100% confluence 100 mm plate into 96-well plates coated with poly D-lysine. After overnight incubation, the required genes were transfected using, for each plate, 5 ng SV40-RL, 10 ng CRE-Luc, 5 ng human RTP1S [72], 2.5 ng M3 receptor [73] and 5 ng of receptor (OR1A1, OR2W1 or empty vector Rho-pCI) plasmid. After around 18 h of transfection, cells were stimulated during 3.5 h by 25 µL of odorant diluted in CD293 + 1% glutamine + 30 µM CuCl2. Odorants were obtained from Sigma Aldrich (St. Louis, MO, USA) and diluted at 1 M concentration in DMSO as stock solutions. […] The luminescence of Firefly (Luc) and Renilla (Rluc) luciferase, were then sequentially monitored by injecting the corresponding substrate following the supplier’s protocol. The activity in each well was normalized as (Luc-400)/(Rluc-400). The response of the receptor was also normalized to its basal activity as (NLX/NL0)-1 where NL0 is the normalized luminescence value at 0 µM of odorant and NLX the value at X µM. […] Raw results were first analyzed with Excel (Microsoft Corporation, Albuquerque, NM, USA) and dose response curves, max efficacy and EC50 have been determined with GraphPrism 6 software (GraphPad Software, La Jolla, CA, USA). Areas under the curves (AUC) were calculated in Excel by summing all the OR responses at different concentrations for each odorant.
Background: A reporter such as luciferase makes a cellular process visible.

Where [1] appears, read: OR2W1, 95% CI (profile likelihood).

Several values for one entry are separate records, joined by “and”; a condition that tells them apart may be missing. Equal entries are not always repeated.

For the compound `CCOc1ccc2ccccc2c1` [2-Ethoxynaphthalene], the “activation of OR2W1 in dose-responses” value was “activated OR2W1 in a dose-response manner”. In addition, for the setting “OR2W1, comparison with ref 14”, the “potency relative to the strongest OR2W1 agonist of Bushdid et al.” value was “two times more potent”. In addition, under setting [1], the Bottom is recorded as 9.687 to 19.33 and the Top is reported as 32.32 to 36.67. In addition, the “normilazed value = (L-400/R-400)” value (OR2W1, log[molecule], M = -3.5) is 30.4896 and 23.1676 and 21.7127. For the same compound, under “OR2W1, log[molecule], M = -3.75”, the “normilazed value = (L-400/R-400)” value is 33.5459 and 34.0167 and 35.7983. Besides, the “normilazed value = (L-400/R-400)” value (OR2W1, log[molecule], M = -4) is 29.5332 and 32.1424 and 36.1752. In addition, the “normilazed value = (L-400/R-400)” value (OR2W1, log[molecule], M = -4.25) was 38.6596 and 38.9119 and 38.3122. Also, the “normilazed value = (L-400/R-400)” value (OR2W1, log[molecule], M = -4.5) was 28.5017 and 40.4493 and 38.4842. Further, under “OR2W1, log[molecule], M = -4.75”, the “normilazed value = (L-400/R-400)” value is 39.1645 and 34.3635 and 36.5051. The “normilazed value = (L-400/R-400)” value (OR2W1, log[molecule], M = -5) was 30.1654 and 33.9031 and 33.7738. Moreover, the “normilazed value = (L-400/R-400)” value (OR2W1, log[molecule], M = -5.25) is 31.8777 and 31.6329 and 33.9788. Besides, the “normilazed value = (L-400/R-400)” value (OR2W1, log[molecule], M = -5.5) is 30.0044 and 26.9494 and 25.4775. Further, the “normilazed value = (L-400/R-400)” value (OR2W1, log[molecule], M = -5.75) was 22.1602 and 26.5902 and 25.5852. Moreover, the “normilazed value = (L-400/R-400)” value (OR2W1, log[molecule], M = -6) was 23.2783 and 19.1056 and 20.6534. Further, the EC50 (usually the concentration giving half of the maximal effect) (OR2W1, three-parameter fit, 95% CI (profile likelihood)) was in the range of 659 to 3050 nM. For the setting “OR2W1, three-parameter fit, 95% CI (profile likelihood), log[molecule], M”, this compound yielded a LogEC50 of -6.181 to -5.515.
On to `C=Cc1ccc(OCCCCOc2ccc(C=C)cc2)cc1` [1-Ethenyl-4-[4-(4-ethenylphenoxy)butoxy]benzene], for which the “activation of OR2W1 in dose-responses” value is given as “non-agonist”. Under setting [1], this compound returned a Bottom of 13.33 to 18.34 and a Top of 19.48 to 21.36. Further, for the setting “OR2W1, log[molecule], M = -3.5, listed as 1,4 bis(4-vinylphenoxy)butane”, the “normilazed value = (L-400/R-400)” value is 14.9951 and 16.6432 and 18.6473. Also, the “normilazed value = (L-400/R-400)” value (OR2W1, log[molecule], M = -3.75, listed as 1,4 bis(4-vinylphenoxy)butane) was 18.9044 and 23.5612 and 19.9145. In addition, the “normilazed value = (L-400/R-400)” value (OR2W1, log[molecule], M = -4, listed as 1,4 bis(4-vinylphenoxy)butane) is 20.1703 and 23.9778 and 22.651. Moreover, the “normilazed value = (L-400/R-400)” value (OR2W1, log[molecule], M = -4.25, listed as 1,4 bis(4-vinylphenoxy)butane) was 19.282 and 20.5728 and 18.4952. In addition, the “normilazed value = (L-400/R-400)” value (OR2W1, log[molecule], M = -4.5, listed as 1,4 bis(4-vinylphenoxy)butane) was 18.9465 and 18.6061 and 21.68. Further, for the setting “OR2W1, log[molecule], M = -4.75, listed as 1,4 bis(4-vinylphenoxy)butane”, the “normilazed value = (L-400/R-400)” value was 18.1682 and 21.4587 and 25.3103. Also, where the note is “OR2W1, log[molecule], M = -5, listed as 1,4 bis(4-vinylphenoxy)butane”, the “normilazed value = (L-400/R-400)” value is 19.2619 and 21.2657 and 21.338. For the same compound, the “normilazed value = (L-400/R-400)” value (OR2W1, log[molecule], M = -5.25, listed as 1,4 bis(4-vinylphenoxy)butane) is 22.445 and 21 and 22.2921. Besides, where the note is “OR2W1, log[molecule], M = -5.5, listed as 1,4 bis(4-vinylphenoxy)butane”, the “normilazed value = (L-400/R-400)” value is 19.9195 and 18.3482 and 19.8887. For the setting “OR2W1, log[molecule], M = -5.75, listed as 1,4 bis(4-vinylphenoxy)butane”, the “normilazed value = (L-400/R-400)” value was 21.6432 and 19.6062 and 21.4331. Moreover, under “OR2W1, log[molecule], M = -6, listed as 1,4 bis(4-vinylphenoxy)butane”, the “normilazed value = (L-400/R-400)” value was 16.9263 and 20.1438 and 17.6109.
